Assay results from US12606552B2, “Bifunctional compound, preparation method therefor, and use thereof” (SUZHOU KINTOR PHARMACEUTICALS, INC., priority 2020, dated 2026).

biological target: T1, AR (Homo sapiens, UniProt P10275, T878A); assay: Effects of compounds on AR expression in LNCaP cells (ELISA, DC50); assay type: cell-based; design: Measurement of the Effects of Drugs on the Expression of AR in Cells by ELISA Method; endogenous in cells; host or cells: LNCaP; conditions: 24 hours of drug treatment, AR by ELISA
T1 sequence (P10275 1-920 T878A): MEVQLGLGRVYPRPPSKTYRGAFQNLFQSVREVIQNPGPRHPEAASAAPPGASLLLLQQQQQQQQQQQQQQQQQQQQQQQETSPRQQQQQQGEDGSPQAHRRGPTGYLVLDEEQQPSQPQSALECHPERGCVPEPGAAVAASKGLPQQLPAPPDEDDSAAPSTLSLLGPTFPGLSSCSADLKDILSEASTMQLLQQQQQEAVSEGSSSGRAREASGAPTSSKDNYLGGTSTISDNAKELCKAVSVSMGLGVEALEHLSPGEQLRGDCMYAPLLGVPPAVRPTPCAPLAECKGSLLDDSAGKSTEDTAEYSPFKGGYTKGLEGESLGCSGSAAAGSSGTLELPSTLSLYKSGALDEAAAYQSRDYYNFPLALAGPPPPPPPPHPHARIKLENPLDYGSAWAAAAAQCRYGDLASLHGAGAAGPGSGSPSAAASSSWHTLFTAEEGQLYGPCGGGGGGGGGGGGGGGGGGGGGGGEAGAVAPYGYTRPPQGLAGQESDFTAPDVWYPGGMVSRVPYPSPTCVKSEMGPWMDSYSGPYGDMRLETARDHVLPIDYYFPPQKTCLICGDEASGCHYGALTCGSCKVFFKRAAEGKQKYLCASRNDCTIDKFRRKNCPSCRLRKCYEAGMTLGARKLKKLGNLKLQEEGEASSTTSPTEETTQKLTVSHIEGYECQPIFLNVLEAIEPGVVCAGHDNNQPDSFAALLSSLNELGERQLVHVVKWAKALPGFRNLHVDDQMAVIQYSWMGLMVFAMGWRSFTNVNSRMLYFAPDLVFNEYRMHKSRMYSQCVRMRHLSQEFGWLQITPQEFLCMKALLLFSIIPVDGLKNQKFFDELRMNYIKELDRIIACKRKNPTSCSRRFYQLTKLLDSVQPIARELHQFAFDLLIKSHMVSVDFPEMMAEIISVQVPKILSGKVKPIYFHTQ
Description: Activity Assay Example 1: Effects of Compounds on AR Expression in LNCaP Cells
1. Cell Line and Cell Culture
Human prostate cancer cells LNCaP (Shanghai Chinese Academy of Sciences Cell Bank). LNCaP was cultured in 1640 medium containing 10% fetal bovine serum. The cells grow in clusters, with weak adhesion to the bottom of the culture flask, slow proliferation, with a multiplication time of 72 h. The cells are closely adhered to each other and need to be digested with 0.05% trypsin containing 0.025% EDTA. The cells were passaged every 3 days. The cells were cultured at 37° C. and 5% CO2 in a humidified incubator
2. Cell plating: The supernatant was discarded, and the Lncap cells in the logarithmic growth phase were taken, washed with PBS once, and added with appropriate 0.05% trypsin digestion solution to be fully digested into single cell suspension, and centrifuged, resuspended and counted to make the number of cells about 15,000 per well, then inoculated in a 96-well plate, placed at 37° C., 5% CO2 and cultured overnight for 24 h.
3. Preparation and Addition of Compound Solutions
About 2 mg of each compound was weighed and dissolved in DMSO to make the stock solution with a concentration of 10 mmol/L. Dilution process (final concentration dilution: 2, 0.667, 0.222, 0.074, 0.0245, 0.008, 0.003, 0.001, 0.0003, 0.0001 μmol/L): 10 centrifuge tubes with a volume of 1.5 mL were taken and numbered 1, 2, 3, 4, 5, 6, 7, 8, 9, and 10, 80 μL DMSO was added to tube No. 1, and 60 μL DMSO was added to tubes No. 2 to No. 10, 20 μL of the stock solution was pipetted to tube No. 1 and mixed well; 30 μL was pipetted from tube No. 1 into tube No. 2 and mixed well. 30 μL was pipetted from tube No. 2 into tube No. 3 and mixed well, and so forth, to obtain samples No. 4-10, and to obtain working solutions of compounds of different concentrations respectively. 2 μL was pipetted from the above-mentioned tubes No. 1-10 into each corresponding sterile deep-well plates, added with 198 μL of culture medium, and mixed well. 11 ul was added to each well of the 96-well cell plate cultured overnight to obtain the corresponding desired concentrations (2, 0.667, 0.222, 0.074, 0.0245, 0.008, 0.003, 0.001, 0.0003, 0.0001 μmol/L).
4. Measurement of the Effects of Drugs on the Expression of AR in Cells by ELISA Method
After 24 hours of drug treatment, the supernatant was removed, and 200 μL of PBS was added to wash cells, and then the supernatant was removed, and 100 μL of cell lysate was added to lyse cells on ice for 20 min, then the cell lysate was centrifuged at 4000 rpm for 20 min at 4° C. and the supernatant was taken for later use. The measurement steps of the supernatant were according to the ELISA kit instructions:
4.1 The slats required for the test were taken out from the sealed bag that has been equilibrated to room temperature. Please put the unused slats and desiccant back into the aluminum foil bag and compress the self-sealing strip, seal the bag, and store at 4° C.
4.2 Standards and sample diluents were added to blank wells, and different concentrations of standards (10 ul/well) and sample diluents (90 ul/well) were added to the remaining corresponding wells, and the reaction wells were sealed with sealing tape, and refrigerated at 4° C. overnight.
4.3 Primary antibody was diluted with dilution buffer to the corresponding concentration and added to each well in 100 ul/well. The reaction wells were sealed with sealing tape and incubated at 37° C. for 60 min.
4.4 Secondary antibody was diluted with dilution buffer to the corresponding concentration and added to each well in 100 ul/well. The reaction wells were sealed with sealing tape and incubated at 37° C. for 30 min.
4.5 The reaction wells were added with 100 ul/well of substrate (TMB) and incubated at room temperature for 30 min.
4.6 The reaction wells were added with 100 ul/well of stop solution, mixed well and then the OD450 value was measured with a microplate reader. […]

SMILES	DC50 [nM]
CC1(C)C(=O)N(c2ccc(C#N)c(C(F)(F)F)c2F)C(=S)N1c1ccc(CCCC(=O)NCCNC(=O)COc2cccc3c2C(=O)N(C2CCC(=O)NC2=O)C3=O)nc1 (stereo not drawn) [Compound A6]	> 2000
CC1(C)C(=O)N(c2ccc(C#N)c(C(F)(F)F)c2F)C(=S)N1c1ccc(-c2ccc(OCCNC(=O)COc3cccc4c3C(=O)N(C3CCC(=O)NC3=O)C4=O)cc2)cc1 (stereo not drawn) [Compound A22]	73.7
CC1(C)C(=O)N(c2ccc(C#N)c(C(F)(F)F)c2F)C(=S)N1c1ccc(-c2ccc(OCCNC(=O)COc3cccc4c3C(=O)N(C3CCC(=O)NC3=O)C4=O)cc2)nc1 (stereo not drawn) [Compound A23]	721
CC1(C)C(=O)N(c2ccc(C#N)c(C(F)(F)F)c2F)C(=S)N1c1ccc(C2CC2C(=O)NCCNC(=O)COc2cccc3c2C(=O)N(C2CCC(=O)NC2=O)C3=O)nc1 (stereo not drawn) [Compound A24]	> 2000
CC1(C)C(=O)N(c2ccc(C#N)c(C(F)(F)F)c2F)C(=S)N1c1ccc(C2CC2C(=O)NCCCNC(=O)COc2cccc3c2C(=O)N(C2CCC(=O)NC2=O)C3=O)nc1 (stereo not drawn) [Compound A25]	> 2000
CC1(C)C(=O)N(c2ccc(C#N)c(C(F)(F)F)c2F)C(=S)N1c1ccc(C2CC2C(=O)NCCCCNC(=O)COc2cccc3c2C(=O)N(C2CCC(=O)NC2=O)C3=O)nc1 (stereo not drawn) [Compound A26]	> 2000
CC1(C)C(=O)N(c2ccc(C#N)c(C(F)(F)F)c2F)C(=S)N1c1ccc(C#CC2CCN(CCNC(=O)COc3cccc4c3C(=O)N(C3CCC(=O)NC3=O)C4=O)CC2)cc1 (stereo not drawn) [Compound A27]	34.8
CC1(C)C(=O)N(c2ccc(C#N)c(C(F)(F)F)c2F)C(=S)N1c1ccc([C@@H]2C[C@H]2C(=O)NCCCCNC(=O)COc2cccc3c2C(=O)N(C2CCC(=O)NC2=O)C3=O)nc1 (stereo partly drawn) [Compound A28]	> 2000
CC1(C)C(=O)N(c2ccc(C#N)c(C(F)(F)F)c2F)C(=S)N1c1ccc(-c2ccc(C(=O)NCCNC(=O)COc3cccc4c3C(=O)N(C3CCC(=O)NC3=O)C4=O)cc2)nc1 (stereo not drawn) [Compound A34]	835
CC1(C)C(=O)N(c2ccc(C#N)c(C(F)(F)F)c2F)C(=S)N1c1ccc(-c2ccc(OCCNC(=O)COc3ccc4c(c3)C(=O)N(C3CCC(=O)NC3=O)C4=O)cc2)nc1 (stereo not drawn) [Compound A38]	58.6
CC1(C)C(=O)N(c2ccc(C#N)c(C(F)(F)F)c2F)C(=S)N1c1cnc(-c2ccc(OCCNC(=O)COc3cccc4c3C(=O)N(C3CCC(=O)NC3=O)C4=O)c(F)c2)c(F)c1 (stereo not drawn) [Compound A39]	19.4
CC1(C)C(=O)N(c2ccc(C#N)c(C(F)(F)F)c2F)C(=S)N1c1cnc(-c2ccc(OCCNC(=O)COc3ccc4c(c3)C(=O)N(C3CCC(=O)NC3=O)C4=O)c(F)c2)c(F)c1 (stereo not drawn) [Compound A40]	29.8
CC1(C)C(=O)N(c2ccc(C#N)c(C(F)(F)F)c2F)C(=S)N1c1cnc(-c2ccc(OCC(=O)NCCNc3cccc4c3C(=O)N(C3CCC(=O)NC3=O)C4=O)c(F)c2)c(F)c1 (stereo not drawn) [Compound A41]	59
CC1(C)C(=O)N(c2ccc(C#N)c(C(F)(F)F)c2F)C(=S)N1c1cnc(-c2ccc(OC3CCN(C(=O)COc4ccc5c(c4)C(=O)N(C4CCC(=O)NC4=O)C5=O)CC3)c(F)c2)c(F)c1 (stereo not drawn) [Compound A42]	122
CC1(C)C(=O)N(c2ccc(C#N)c(C(F)(F)F)c2F)C(=S)N1c1cnc(-c2ccc(OC3CCN(C(=O)COc4cccc5c4C(=O)N(C4CCC(=O)NC4=O)C5=O)CC3)c(F)c2)c(F)c1 (stereo not drawn) [Compound A43]	88.3
CC1(C)C(=O)N(c2ccc(C#N)c(C(F)(F)F)c2F)C(=S)N1c1ccc(-c2ccc(OC3CCN(C(=O)COc4cccc5c4C(=O)N(C4CCC(=O)NC4=O)C5=O)C3)cc2)nc1 (stereo not drawn) [Compound A44]	> 2000
CC1(C)C(=O)N(c2ccc(C#N)c(C(F)(F)F)c2F)C(=S)N1c1ccc(-c2ccc(C(=O)N3CCN(C(=O)COc4cccc5c4C(=O)N(C4CCC(=O)NC4=O)C5=O)CC3)cc2)nc1 (stereo not drawn) [Compound A45]	> 2000
Cc1ncsc1-c1ccc(CNC(=O)[C@@H]2C[C@@H](O)CN2C(=O)[C@@H](NC(=O)COc2ccc(-c3ccc(N4C(=S)N(c5ccc(C#N)c(C(F)(F)F)c5F)C(=O)C4(C)C)cn3)cc2)C(C)(C)C)cc1 [Compound A48]	> 2000
